Measurements published in patent US5654427A, “Indolocarbazole derivatives to treat a pathological condition of the prostate” (Kyowa Hakko Kogyo Co., Ltd., priority 1995, dated 1997).

Legend:
[1] = system: Du-Pro1; experiment: growth inhibition of Du-Pro1 prostate cancer cells (calcein fluorescence); assay type: cell-based; settings: Homo sapiens, 72 h; 3 days incubation; read-out: Du-Pro1 IC50
Protocol: Throughout the experiment the Tsu-Pr1 and Du-Pro1 cells were maintained in RPMI 1640 medium (GIBCO) containing 10% fetal bovine serum (Hyclone), 2 mM glutamine, 100 U/ml penicillin, and 100 μg/ml streptomycin. The PC-3 cells were maintained in Ham's F12K medium (Irvine Scientific) containing 10% fetal bovine serum (Hyclone), 2 mM glutamine, 100 U/ml penicillin, and 100 μg/ml streptomycin. All cell lines were maintained at 37° C. in a humidified atmosphere containing 5% CO2. The DU-145 cells were maintained in minimal essential medium (Gibco), containing 10% fetal bovine serum (Hyclone), 2 mM glutamine, and no antibiotics.
Tests for growth inhibition by the candidate compounds were conducted by the following procedure. In each well of a 96-well plate (Falcon) were placed 2,500 cells in 0.1 ml of medium. The cultures were incubated overnight after which a 0.1 ml aliquot of culture medium was added to each well. […] Other control wells received medium without any K-252a derivative compounds. Incubation was continued for three days. On day three the number of cells in each well was measured using a calcein fluorescence assay (Bozyczko-Coyne et al. J. Neurosci. Meth. 50, 205-216 (1993)).
Calcein AM (Molecular Probes, Eugene, Oreg.), an analog of the viable dye fluorescein diacetate, is taken up by cells and cleaved intracellularly to fluorescent salts that are retained by intact membranes of viable cells. This method thus provides a reliable and quantitative measurement of cell survival. Calcein AM was diluted 2× in Dulbeccos phosphate buffered saline (D-PBS) to 2× the final assay concentration (6 μM) and 100 μl was added to culture wells containing 100 μl of medium. The plates were then incubated for 1 hour at 37° C. Cells were then washed 4 times with D-PBS to remove excess calcein not taken up by cells. The plate was read using a Millipore plate reading fluorimeter (Cytofluor 2350) at emission=485 nm and excitation=538 nm. After subtraction of blank values (wells containing medium but no cells), relative fluorescent values reflect a quantitative measurement of cell survival.
The number of cells in the wells containing functional derivatives was compared to the number of cells in the control wells. The concentration which inhibited cell growth by 50% was calculated and is referred to as the "IC50 ".

[2] = body weight and weight of peripheral organs in sexually immature mice; settings: for Body Weight: Table 6, TEPBS 32.0 ± 0.6; for Heart weight / Testes weight / Stomach weight / Lung weight / Kidney weight / Liver weight: Table 7; for Heart weight: TEPBS 170 ± 10; for Testes weight: TEPBS 206 ± 8; for Stomach weight: TEPBS 272 ± 14; for Lung weight: TEPBS 280 ± 15; for Kidney weight: TEPBS 589 ± 34; for Liver weight: TEPBS 2004 ± 69
Excerpt: The following animal model can be used to test the efficacy of a functional derivative for treatment of a proliferative prostate condition. Sexually immature male mice of 15-20 g each (Charles River Laboratories, Raleigh, N.C.) were used in the following in vivo study. The mice were allowed at least 3 days after purchase to acclimate before being used in any experiments.
Each test group contained 12 mice. […] At the end of the 21 day dosing period the mice were sacrificed and whole body blood, dorsal prostate, ventral prostate, coagulating glands, seminal vesicles, heart, liver, stomach, lung, kidneys and testes were collected separately and weighed.

In the case of COC1(CO)CC2OC1(C)n1c3ccccc3c3c4c(c5c6ccccc6n2c5c31)C(=O)NC4 (stereo not drawn) [Compound I-19], the IC50 [1] is reported as 270 nM, the “Body Weight” value ([2]; 1 mg/kg) is reported as 31.9 ± 0.8 g and the “Body Weight” value ([2]; 10 mg/kg) is reported as 31.2 ± 0.5 g. It also gave a Heart weight ([2]; 1 mg/kg) of 160 ± 20 mg, a Testes weight ([2]; 1 mg/kg) of 205 ± 7 mg and a Stomach weight ([2]; 1 mg/kg) of 252 ± 12 mg. For the same compound, the Lung weight ([2]; 1 mg/kg) was 323 ± 16 mg, the Kidney weight ([2]; 1 mg/kg) was 467 ± 18 mg and the Liver weight ([2]; 1 mg/kg) was 1968 ± 58 mg. The Heart weight ([2]; 10 mg/kg) was 166 ± 8 mg, the Testes weight ([2]; 10 mg/kg) was 208 ± 8 mg and the Stomach weight ([2]; 10 mg/kg) was 242 ± 11 mg. The Lung weight ([2]; 10 mg/kg) was 276 ± 18 mg, the Kidney weight ([2]; 10 mg/kg) was 563 ± 17 mg and the Liver weight ([2]; 10 mg/kg) was 1933 ± 70 mg.
